Data as given in patent US4885239A, “Rapid differentiation of bacteria using polyether antibiotics” (Eastman Kodak Company, priority 1986, dated 1989).

Legend:
E. coli (gram -) = assay: change in optical density with tetrazolium salt MTT (Example 5), E. coli; assay type: cell-based, Escherichia coli (ATCC 25922); conditions: 540 nm, 37° C., without antibiotic 0.643
Procedure: (§1) gram-negative bacteria Enterobacter cloacae (ATCC 23355), Escherichia coli (ATCC 25922), Proteus vulgaris (ATCC 13315), Klebsiella pneumoniae (ATCC 13883) and Pseudomonas aeruginosa (ATCC 27853), and gram-positive bacteria Staphylococcus aureus (ATCC 25923) and Streptococcus pyogenes (ATCC 19615), and brain heart infusion (BHI) broth from Difco Laboratories (Detroit, Mich.),
(§2) Bacterial suspensions were prepared by growing the cells in BHI to stationary phase overnight at 37° C. P. aeruginosa was grown with agitation. About 40 ml of overnight cultures were centrifuged, decanted and washed once with 0.05 molar potassium phosphate buffer or 0.05 molar N-2-hydroxyethylpiperazine-N'-2-ethanesulfonic acid (HEPES) buffer, pH 7.8, and resuspended in buffer.
(§3) The reducible compound solution was prepared with 3-(4,5-dimethyl-2-thiazolyl)-2,5-diphenyl-2H-tetrazolium bromide (MTT) (200 μl of 5 mg/ml methanol), 200 μl glucose solution (10% in water), 200 μl trimethyl-1,4-benzoquinone ETA (1.5 mg/ml methanol) and 12 ml of HEPES buffer (0.05 molar, pH 7.8).
(§4) Test solutions were prepared with the following: 50 μl HEPES buffer, 50 μl polyether antibiotic A23187 (free acid, 0.01 molar in methanol), 10 μl calcium chloride (1 molar) (serial dilutions of buffer and antibiotic were performed to obtain various antibiotic concentrations), 50 μl of the appropriate cell suspension, E. coli (about 10^8 cells/ml) or S. aureus (about 10^8 cells/ml), and 200 μl of the MTT solution. Control solutions were prepared as described in previous Examples.
(§5) Optical density measurements were obtained at 540 nm using a standard spectrophotometer and the change in optical density (ΔOD) was determined after 30 minutes at 37° C. The resulting data are shown in Table VII below for several concentrations of antibiotic. It is clear from the data that the composition of this example was useful for differentiating bacteria.

S. aureus (gram +) = assay: change in optical density with tetrazolium salt MTT (Example 5), S. aureus; assay type: cell-based, Staphylococcus aureus (ATCC 25923); conditions: 540 nm, 37° C., without antibiotic 0.505
Procedure: as §1, §2, §3, §4, §5

Compound: CNc1ccc2oc(C[C@H]3O[C@@]4(CC[C@H]3C)O[C@H]([C@H](C)C(=O)c3ccc[nH]3)[C@H](C)C[C@H]4C)nc2c1C(=O)O [calimycin, Calimycin]
- Δ OD after 30 Min. (E. coli (gram -); antibiotic 1 × 10^-4 molar): 0.503
- Δ OD after 30 Min. (E. coli (gram -); antibiotic 2 × 10^-4 molar): 0.529
- Δ OD after 30 Min. (E. coli (gram -); antibiotic 4 × 10^-4 molar): 0.512
- Δ OD after 30 Min. (E. coli (gram -); antibiotic 8 × 10^-4 molar): 0.413
- Δ OD after 30 Min. (S. aureus (gram +); antibiotic 1 × 10^-4 molar): 0.089
- Δ OD after 30 Min. (S. aureus (gram +); antibiotic 2 × 10^-4 molar): 0.096
- Δ OD after 30 Min. (S. aureus (gram +); antibiotic 4 × 10^-4 molar): 0.065
- Δ OD after 30 Min. (S. aureus (gram +); antibiotic 8 × 10^-4 molar): 0.028
